From patent US9586961B2, “Homopiperazine derivatives as protein tyrosine kinase inhibitors and pharmaceutical use thereof” (LEO PHARMA A/S, priority 2010, dated 2017)

How the values were obtained:
Format in all cases: biochemical
[1] = target: T1, JAK1 (Homo sapiens, UniProt P23458); test: JAK1 kinase assay (HTRF, inhibition of phosphorylation of a synthetic peptide); conditions: catalytic domain aa 850-1154, GST-tag; 7 μM ATP (Km); read-out: JAK1 kinase inhibitory activity (EC50)
T1 construct: JAK1 (aa 850-1154) and TYK2 (aa 871-1187) are expressed with an N-terminally fused GST-tag; GST (N); purchased Carna Biosciences, Inc; host or cells: baculovirus expression system
Summary of the method: (§1)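 Baculovirus-expressed catalytic domains (GST-JAK1 aa 850-1154, GST-TYK2 aa 871-1187, His-JAK2, His-JAK3) phosphorylate 1 μM biotin-TK peptide 20-30 min at RT in 50 mM Hepes pH 7.0 with ATP at Km: JAK1 7 μM, JAK2 4 μM, JAK3 2 μM, TYK2 13 μM; 0.75% DMSO. Stopped with EDTA, HTRF read overnight.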

[2] = target: T2, JAK2 (Homo sapiens, UniProt O60674); test: JAK2 kinase assay (HTRF, inhibition of phosphorylation of a synthetic peptide); conditions: catalytic domain, His-tag; 4 μM ATP (Km); read-out: JAK2 kinase inhibitory activity (EC50)
T2 construct: All four purified enzymes contain only the catalytic domain; His (N); purchased Carna Biosciences, Inc; host or cells: baculovirus expression system
Summary of the method: as §1

[3] = target: T3, TYK2 (Homo sapiens, UniProt P29597); test: TYK2 kinase assay (HTRF, inhibition of phosphorylation of a synthetic peptide); conditions: catalytic domain aa 871-1187, GST-tag; 13 μM ATP (Km); read-out: TYK2 kinase inhibitory activity (EC50)
T3 construct: JAK1 (aa 850-1154) and TYK2 (aa 871-1187) are expressed with an N-terminally fused GST-tag; GST (N); purchased Carna Biosciences, Inc; host or cells: baculovirus expression system
T3 sequence (P29597 871-1187): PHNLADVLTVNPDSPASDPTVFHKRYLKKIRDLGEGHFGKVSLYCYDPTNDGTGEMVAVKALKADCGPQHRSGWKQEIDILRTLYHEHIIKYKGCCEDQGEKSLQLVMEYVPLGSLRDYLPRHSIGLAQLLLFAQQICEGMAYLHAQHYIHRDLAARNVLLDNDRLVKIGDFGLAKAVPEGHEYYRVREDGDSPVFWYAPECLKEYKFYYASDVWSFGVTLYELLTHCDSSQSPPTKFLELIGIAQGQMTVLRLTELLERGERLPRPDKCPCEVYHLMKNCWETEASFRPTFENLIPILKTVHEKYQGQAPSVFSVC
Summary of the method: as §1

[4] = target: T4, JAK3 (Homo sapiens, UniProt P52333); test: JAK3 kinase assay (HTRF, inhibition of phosphorylation of a synthetic peptide); conditions: catalytic domain, His-tag; 2 μM ATP (Km); read-out: JAK3 kinase inhibitory activity (EC50)
T4 construct: All four purified enzymes contain only the catalytic domain; His (N); purchased Carna Biosciences, Inc; host or cells: baculovirus expression system
Summary of the method: as §1

T1 sequence (P23458 850-1154): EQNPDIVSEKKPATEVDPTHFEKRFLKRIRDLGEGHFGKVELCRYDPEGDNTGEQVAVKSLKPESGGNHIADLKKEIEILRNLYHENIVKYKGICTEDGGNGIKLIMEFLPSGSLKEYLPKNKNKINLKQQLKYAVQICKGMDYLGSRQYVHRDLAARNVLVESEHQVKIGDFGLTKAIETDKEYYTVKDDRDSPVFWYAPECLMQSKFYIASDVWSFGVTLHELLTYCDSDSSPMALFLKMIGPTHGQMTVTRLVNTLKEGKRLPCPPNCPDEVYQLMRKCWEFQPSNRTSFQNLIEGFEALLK
T4 sequence (P52333 822-1111 limits assumed): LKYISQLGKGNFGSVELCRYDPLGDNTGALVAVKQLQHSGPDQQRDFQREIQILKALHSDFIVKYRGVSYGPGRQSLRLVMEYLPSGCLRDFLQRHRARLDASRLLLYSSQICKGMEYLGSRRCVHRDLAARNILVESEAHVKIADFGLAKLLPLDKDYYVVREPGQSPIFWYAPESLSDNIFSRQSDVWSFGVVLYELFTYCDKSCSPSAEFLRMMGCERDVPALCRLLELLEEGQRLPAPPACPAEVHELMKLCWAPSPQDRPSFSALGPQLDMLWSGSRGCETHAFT
T2 sequence (O60674 849-1124 limits assumed): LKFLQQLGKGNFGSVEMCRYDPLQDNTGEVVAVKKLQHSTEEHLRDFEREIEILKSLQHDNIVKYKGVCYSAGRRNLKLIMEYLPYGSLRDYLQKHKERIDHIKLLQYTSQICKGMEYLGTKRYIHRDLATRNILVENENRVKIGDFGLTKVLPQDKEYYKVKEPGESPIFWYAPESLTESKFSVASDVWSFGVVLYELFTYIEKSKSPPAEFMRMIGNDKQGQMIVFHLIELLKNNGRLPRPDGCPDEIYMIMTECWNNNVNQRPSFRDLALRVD

SMILES | EC50 [1] | EC50 [2] | EC50 [3] | EC50 [4]
N#Cc1cccc(CCC(=O)N2CCN(c3ncnc4[nH]ccc34)CC3(CC3)C2)c1 [Example 116, 3-[3-oxo-3-[5-(7H-pyrrolo[2,3-d]pyrimidin-4-yl)-5,8-diazaspiro[2.6]nonan-8-yl]propyl]benzonitrile] | 100 to 1000 nM | < 100 nM | > 1000 nM | 100 to 1000 nM
N#CCCC(=O)N1CCCN(c2ncnc3[nH]ccc23)CC12CC2 [Example 61, 4-oxo-4-[5-(7H-pyrrolo[2,3-d]pyrimidin-4-yl)-5,9-diazaspiro[2.6]nonan-9-yl]butanenitrile] | 100 to 1000 nM | 100 to 1000 nM | > 1000 nM | 100 to 1000 nM
N#CCc1ccc(C(=O)N2CCN(c3ncnc4[nH]ccc34)CC3(CC3)C2)cc1 [Example 12, {4-[8-(7H-pyrrolo[2,3-d]pyrimidin-4-yl)-5,8-diazaspiro[2.6]nonane-5-carbonyl]phenyl}acetonitrile] | 100 to 1000 nM | 100 to 1000 nM | > 1000 nM | > 1000 nM
O=C(c1cc2c(s1)CCC2)N1CCN(c2ncnc3[nH]ccc23)CC2(CC2)C1 [Example 21, 5,6-dihydro-4H-cyclopenta[b]thiophen-2-yl-[5-(7H-pyrrolo[2,3-d]pyrimidin-4-yl)-5,8-diazaspiro[2.6]nonan-8-yl]methanone] | 100 to 1000 nM | 100 to 1000 nM | > 1000 nM | 100 to 1000 nM
CC1CN(c2ncnc3[nH]ccc23)CC2(CC2)CN1C(=O)Nc1ccccc1 (stereo not drawn) [Example 99, 7-methyl-N-phenyl-5-(7H-pyrrolo[2,3-d]pyrimidin-4-yl)-5,8-diazaspiro[2.6]nonane-8-carboxamide] | > 1000 nM | > 1000 nM | > 1000 nM | > 1000 nM
O=C(Cc1ccc(C(F)(F)F)cc1)N1CCN(c2ncnc3[nH]ccc23)CC2(CC2)C1 [Example 271, 1-[5-(7H-pyrrolo[2,3-d]pyrimidin-4-yl)-5,8-diazaspiro[2.6]nonan-8-yl]-2-[4-(trifluoromethyl)phenyl]ethanone] | < 100 nM | < 100 nM | 100 to 1000 nM | 100 to 1000 nM
CNS(=O)(=O)c1csc(C(=O)N2CCN(c3ncnc4[nH]ccc34)CC3(CC3)C2)c1C [Example 23, N,4-dimethyl-5-[5-(7H-pyrrolo[2,3-d]pyrimidin-4-yl)-5,8-diazaspiro[2.6]nonane-8-carbonyl]thiophene-3-sulfonamide] | 100 to 1000 nM | < 100 nM | > 1000 nM | 100 to 1000 nM
CC1CN(c2ncnc3[nH]ccc23)CC2(CC2)CN1C(=O)CC1CCCC1 (stereo not drawn) [Example 285, 2-cyclopentyl-1-[7-methyl-5-(7H-pyrrolo[2,3-d]pyrimidin-4-yl)-5,8-diazaspiro[2.6]nonan-8-yl]ethanone] | 100 to 1000 nM | 100 to 1000 nM | > 1000 nM | > 1000 nM
NS(=O)(=O)c1ccc(NC(=O)C(=O)N2CCN(c3ncnc4[nH]ccc34)CC3(CC3)C2)cc1 [Example 64, 2-oxo-2-[5-(7H-pyrrolo[2,3-d]pyrimidin-4-yl)-5,8-diazaspiro[2.6]nonan-8-yl]-N-(4-sulfamoylphenyl)acetamide] | < 100 nM | < 100 nM | 100 to 1000 nM | < 100 nM

Other lines, results leading:

EC50 [1] | EC50 [2] | EC50 [3] | EC50 [4] | SMILES
> 1000 nM | > 1000 nM | > 1000 nM | > 1000 nM | CC1CN(c2ncnc3[nH]ccc23)CC2(CC2)CN1 (stereo not drawn) [Example 293]
< 100 nM | < 100 nM | 100 to 1000 nM | < 100 nM | NS(=O)(=O)c1ccc(C(=O)N2CCN(c3ncnc4[nH]ccc34)CC3(CC3)C2)cc1 [Example 31, 4-[5-(7H-pyrrolo[2,3-d]pyrimidin-4-yl)-5,8-diazaspiro[2.6]nonane-8-carbonyl]benzenesulfonamide]
> 1000 nM | > 1000 nM | > 1000 nM | > 1000 nM | N#Cc1cccc(CC(=O)N2CCN(c3ncnc4[nH]ccc34)CCC23CC3)c1 [Example 47, 3-[2-oxo-2-[6-(7H-pyrrolo[2,3-d]pyrimidin-4-yl)-6,9-diazaspiro[2.6]nonan-9-yl]ethyl]benzonitrile]
100 to 1000 nM | 100 to 1000 nM | > 1000 nM | 100 to 1000 nM | Cc1cc(S(N)(=O)=O)ccc1C(=O)N1CCN(c2ncnc3[nH]ccc23)CC2(CC2)C1 [Example 71, 3-methyl-4-[5-(7H-pyrrolo[2,3-d]pyrimidin-4-yl)-5,8-diazaspiro[2.6]nonane-8-carbonyl]benzenesulfonamide]
< 100 nM | < 100 nM | 100 to 1000 nM | < 100 nM | N#Cc1ccc(CC(=O)N2CCN(c3ncnc4[nH]ccc34)CC3(CC3)C2)cc1 [Example 10, 4-{2-oxo-2-[8-(7H-pyrrolo[2,3-d]pyrimidin-4-yl)-5,8-diazaspiro[2.6]non-5-yl]ethyl}benzonitrile]
< 100 nM | < 100 nM | 100 to 1000 nM | < 100 nM | N#Cc1ccc(C(=O)N2CCCN(c3ncnc4[nH]ccc34)CC23CC3)s1 [Example 120, 5-[5-(7H-pyrrolo[2,3-d]pyrimidin-4-yl)-5,9-diazaspiro[2.6]nonane-9-carbonyl]thiophene-2-carbonitrile]
